Experimental data from US20010056101A1 (priority 1998, published 2001).
Like-named read-outs stand apart in the source and are kept apart here.

Experiments:
[1] = test system: hO3 Receptor (Homo sapiens); conditions: for Intrinsic Activity: calculated from the Low/High ratio; for Ratio Low/High: ratio of affinity at low-affinity agonist state to high affinity agonist state; for Ki: read-out: Ki (nM) ± S.D
[2] = target: T1, hO44 Receptor (Homo sapiens, UniProt P21917); conditions: for Intrinsic Activity / Ratio Low/High / Ki: hO44 Receptor; for Ratio Low/High: ratio of affinity at low-affinity agonist state to high affinity agonist state
T1 sequence (P21917 1-419): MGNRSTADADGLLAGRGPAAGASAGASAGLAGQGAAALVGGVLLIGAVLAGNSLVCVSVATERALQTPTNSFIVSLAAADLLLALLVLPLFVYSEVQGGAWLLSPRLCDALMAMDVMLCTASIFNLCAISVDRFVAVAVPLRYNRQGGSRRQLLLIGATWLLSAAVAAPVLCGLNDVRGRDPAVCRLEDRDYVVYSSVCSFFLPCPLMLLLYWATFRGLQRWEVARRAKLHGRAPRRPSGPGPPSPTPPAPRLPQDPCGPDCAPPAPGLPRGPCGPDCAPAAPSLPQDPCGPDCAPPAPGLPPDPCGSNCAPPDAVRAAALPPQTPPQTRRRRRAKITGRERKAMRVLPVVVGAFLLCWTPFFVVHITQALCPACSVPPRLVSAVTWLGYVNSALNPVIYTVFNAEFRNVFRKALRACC

[3] = test system: tardive dyskinesia; conditions: clinical pharmacology, in words; cited from earlier work
[4] = test system: actively psychotic schizophrenic persons; experiment: Clinical test of (−)-3PPP plus haloperidol in actively psychotic schizophrenic persons, BPRS; assay type: in vivo, human; conditions: for Change in Total BPRS Score, mean: each arm with haloperidol 1 mg bid
Excerpt: This combination was designed to produce a lower IA (-)-3PPP, and thereby prolonging its antipsychotic activity. […] This dose of haloperidol may have delivered a measurable antipsychotic effect. […] (Table 5).

[5] = test system: schizophrenia; experiment: Clinical antipsychotic efficacy, efficacy tolerance and side effects of dopamine agonists in schizophrenia; assay type: in vivo, human
[6] = test system: schizophrenia; conditions: grade symbols, key not given; cited from earlier work
[7] = target: hD21 Receptor (Homo sapiens, UniProt P14416); experiment: Affinity and intrinsic activity of partial dopamine agonists, Table 3
hD21 Receptor, sequence (P14416 whole entry): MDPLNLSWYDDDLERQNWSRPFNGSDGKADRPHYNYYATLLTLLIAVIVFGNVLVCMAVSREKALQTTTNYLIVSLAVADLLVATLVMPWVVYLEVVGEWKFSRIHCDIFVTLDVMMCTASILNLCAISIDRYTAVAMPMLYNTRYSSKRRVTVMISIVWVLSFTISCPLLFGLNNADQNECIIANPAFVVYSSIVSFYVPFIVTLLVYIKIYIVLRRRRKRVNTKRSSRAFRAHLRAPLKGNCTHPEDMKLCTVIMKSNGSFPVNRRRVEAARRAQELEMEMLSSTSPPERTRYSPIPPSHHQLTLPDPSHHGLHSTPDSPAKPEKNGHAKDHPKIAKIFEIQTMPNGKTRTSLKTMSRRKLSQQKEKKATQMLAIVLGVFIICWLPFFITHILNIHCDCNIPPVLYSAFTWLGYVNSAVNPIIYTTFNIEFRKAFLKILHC

[8] = target: D2 receptor (Homo sapiens, UniProt P14416); conditions: for Emax: CHO
D2 receptor, sequence (P14416 whole entry): as above

[9] = target: T2, hD42 (Homo sapiens, UniProt P21917, DEL265-296); experiment: biochemical
T2 sequence (P21917 with tags, fused parts or gaps DEL265-296): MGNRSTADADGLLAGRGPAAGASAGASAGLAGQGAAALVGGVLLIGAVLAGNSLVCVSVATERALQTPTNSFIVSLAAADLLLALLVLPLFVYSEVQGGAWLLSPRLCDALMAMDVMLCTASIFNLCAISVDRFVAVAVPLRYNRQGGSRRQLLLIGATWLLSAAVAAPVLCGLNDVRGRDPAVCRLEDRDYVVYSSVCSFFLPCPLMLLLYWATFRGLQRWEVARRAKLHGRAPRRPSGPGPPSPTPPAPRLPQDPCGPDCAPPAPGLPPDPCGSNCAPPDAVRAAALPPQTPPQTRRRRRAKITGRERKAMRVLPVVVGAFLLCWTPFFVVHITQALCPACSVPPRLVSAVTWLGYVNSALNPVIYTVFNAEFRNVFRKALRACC

[10] = test system: schizophrenia; conditions: cited from earlier work
[11] = test system: hD3 (Homo sapiens); experiment: Affinity and intrinsic activity, Table 4; assay type: binding
hD3 (Homo sapiens), sequence (P14416 whole entry): as the sequence (P14416 whole entry) above

[12] = target: T3, hD47 (Homo sapiens, UniProt P21917)
T3 sequence (P21917 1-419): T1 sequence (P21917 1-419)

[13] = test system: L-DOPA-induced dyskinesia in Parkinson's disease; conditions: cited from earlier work
[14] = target: T4, hD44 (Homo sapiens, UniProt P21917); experiment: biochemical
T4 sequence (P21917 1-419): T1 sequence (P21917 1-419)

[15] = calculated from the Low/High ratio

hO3 Receptor (Homo sapiens), sequence (P14416 whole entry): as the sequence (P14416 whole entry) above

In the case of CCCN(CCc1cccs1)C1CCc2c(O)cccc2C1 (single isomer, unassigned; (+)) [(+)-N-0437], the “Intrinsic Activity” value [1] is reported as 48%, the “Ratio Low/High” value [1] is reported as 10 and the Ki [1] is reported as 4.8 ± 2.3 nM. For the same compound, the “Intrinsic Activity” value [2, 15] was 72%, the “Ratio Low/High” value [2] was 40 and the Ki ([2]; read-out: Ki (nM) ± S.D.) was 7.7 ± 3.4 nM.
In the case of CN1CCc2cccc3c2[C@H]1Cc1ccc(O)c(O)c1-3 [(−)-Apo], the “Intrinsic Activity” value [2, 15] is reported as 80%.
For CCCN1CCc2cccc3c2[C@H]1Cc1ccc(O)c(O)c1-3 [(−)-NPA], the “Intrinsic Activity” value [1] was 100%, the “Intrinsic Activity” value [2, 15] was 57% and the Ki ([2]; read-out: Ki (nM) ± S.D.) was 0.6 ± 0.2 nM.
For CCCN1CCCC(c2cccc(O)c2)C1 (single isomer, unassigned; (+)) [(+)-3-PPP], the “Intrinsic Activity” value [1] was 81%, the Ki ([2]; Ki (nM) ± S.D.) was 12 ± 6.5 nM and the “Intrinsic Activity” value [2, 15] was 96%.
In the case of CN1CCc2cccc3c2[C@H]1Cc1ccc(O)c(O)c1-3 [Apomorphine, apomorphine], the “Effect on tardive dyskinesia” value [3] is given as “paradoxically improves tardive dyskinesia, both significantly and substantially”.
In the case of O=C(CCCN1CCC(O)(c2ccc(Cl)cc2)CC1)c1ccc(F)cc1 [Haloperidol, haloperidol], the “Change in Total BPRS Score, mean” value ([4]; Day 3) is reported as −1.0, the “Change in Total BPRS Score, mean” value ([4]; Day 7) is reported as −0.2 and the “Change in Total BPRS Score, mean” value ([4]; Day 11) is reported as −0.1. For the same compound, the “Change in Total BPRS Score, mean” value ([4]; Day 14) was −1.1.
For CCCN1CCc2cccc3c2[C@@H]1Cc1ccc(O)c(O)c1-3 [(+)-NPA], the “Intrinsic Activity” value [1] was 61%, the “Intrinsic Activity” value [2, 15] was 58% and the Ki ([2]; read-out: Ki (nM) ± S.D.) was 2.3 ± 2 nM.
With CCCN1CCc2cccc3c2[C@H]1Cc1ccc(O)c(O)c1-3 [NPA, n-propylnorapomorphine] the “Efficacy tolerance observed after” value ([5]; antipsychotic efficacy tolerance) was 24 h.
With CN1CCc2cccc3c2[C@@H]1Cc1ccc(O)c(O)c1-3 [(+)-Apo] the “Intrinsic Activity” value [2, 15] was 55%.
For CN1C[C@H](CSc2ccccn2)C=C2c3cccc4[nH]cc(c34)C[C@H]21 [CF25-397], the “Effect on tardive dyskinesia” value [3] is listed as “modestly improved dyskinetic symptoms in TD” and the Antipsychotic [6] is listed as 0.
In the case of CN1C[C@H](CN2CC(=O)NC(=O)C2)C=C2c3cccc4[nH]cc(c34)C[C@H]21 [FCE-23884], the “Intrinsic Activity” value [7] is reported as 37.0%, the Ki ([7]; read-out: Ki (HiAg State), high affinity agonist state) is reported as 0.4 nM and the Ki ([7]; read-out: Ki (LowAg State), low affinity agonist state) is reported as 2.17 nM.
For c1cnc(N2CCN(Cc3ccc4c(c3)OCO4)CC2)nc1 [Piribedil (S584), piribedil], the “Effect on tardive dyskinesia” value [3] is listed as “modestly improved dyskinetic symptoms in TD” and the Antipsychotic [6] is listed as 0.
For CCCN(CCc1cccs1)[C@H]1CCc2c(O)cccc2C1 [(−)-N-0437], the “Intrinsic Activity” value [1] was 94%, the “Ratio Low/High” value [1] was 145 and the Ki [1] was 0.08 ± 0.04 nM. For the same compound, the “Intrinsic Activity” value [2, 15] was 88%, the “Ratio Low/High” value [2] was 106 and the Ki ([2]; read-out: Ki (nM) ± S.D.) was 1.1 ± 0.7 nM.
For CCCN1CCCC(c2cccc(O)c2)C1 (single isomer, unassigned; (-)) [(−)-3-PPP, (−)3-(3-hydroxyphenyl)-N-n-propylpiperidine], the Duration of efficacy ([5]; antipsychotic efficacy before tolerance) was “up to 7 days”, the “Intrinsic Activity” value [1] was 46% and the Emax ([8]; read-out: Intrinsic activity (IA), Example 2) was 40%. The Emax ([8]; read-out: Intrinsic activity, tested without haloperidol, FIG. 1) was 36%, the “Change of intrinsic activity with increasing concentrations of haloperidol” value ([8]; varying concentrations of haloperidol, FIG. 1) was “linear reduction in the intrinsic activity” and the Ki [9] was 30.9 nM. The Emax ([9]; read-out: Intrinsic Activity %) was 73%, the “Acute motor side effects” value ([10]; clinical application in schizophrenia) was “not accompanied by any acute motor side effect” and the “Duration of antipsychotic action” value ([10]; continuous dosing, agonist alone) was “approximately one week”. The Emax [11] was 46%, the Ki ([2]; Ki (nM) ± S.D.) was 12.2 ± 3.1 nM and the Emax ([2]; read-out: Intrinsic Activity, hO44 Receptor, calculated from the Low/High ratio) was 83%. The “Intrinsic Activity %” value [12] was 98%, the Ki ([12]; high affinity agonist state, [3H]-agonist ligand) was 14.3 nM and the “Antipsychotic effect over the trial” value ([4]; (−)-3PPP 300 mg bid plus haloperidol 1 mg bid, two weeks) was “extended longer for the entire two week period of the trial without evidence of tolerance”. For the same compound, the “Change in Total BPRS Score, mean” value ([4]; Day 3) was −1.4, the “Change in Total BPRS Score, mean” value ([4]; Day 7) was −3.4 and the “Change in Total BPRS Score, mean” value ([4]; Day 11) was −3.3. For the same compound, the “Change in Total BPRS Score, mean” value ([4]; Day 14) was −4.6, the “Effect on L-DOPA-induced dyskinesia” value [13] was “improves L-DOPA-induced dyskinesia in Parkinson's disease” and the Ki [14] was 13.2 nM. The Emax ([14]; read-out: Intrinsic Activity %) was 97%.
